{"source": "patent US20220202832A1", "about": "“ALLOPREGNANOLONE COMPOSITIONS AND USES THEREOF” (The Regents of the University of California, priority 2019, published 2022)", "key": {"PTZ-induced seizures": {"tested_on": "PTZ-induced seizures", "test": "maximal PTZ seizure test", "assay_type": "in vivo, mice", "procedure": "Solutions of allopregnanolone (5α,3α-P) (15 mg/ml) were prepared in 40% sulfobutylether-β-cyclodextrin sodium salt in 0.9% saline. Seizures were induced in mice with pentylenetetrazol (PTZ; […] IP). 5α,3α-P solution (6 and 10 mg/kg) or vehicle was administered intranasally 5, 10 and 15 min prior to administration of the PTZ. […] The times to onset of myoclonic body twitches and clonic and tonic seizures were recorded. 5α,3α-P was considered to have antiseizure activity if it delayed the onset of seizure signs in comparison with the time of their occurrence in vehicle-treated animals.\nThe times to occurrence of the 3 seizure signs as in the timed intravenous PTZ seizure test were recorded. Allopregnanolone (10 mg/kg) or vehicle was administered intranasally 10 min prior to the PTZ injection."}, "[1]": {"tested_on": "PTZ-induced seizures (seizure threshold)", "test": "timed intravenous PTZ seizure threshold test", "assay_type": "in vivo, mice", "settings": "for effect on seizure threshold parameters: Example 2; for elevation in thresholds to the three seizure endpoints: intranasal 1 mg/kg, compared with allopregnanolone 16 mg/kg", "procedure": "(§1) The thresholds for various behavioral seizure stages induced by the PTZ and bicuculine were determined by infusing the convulsant drugs via a 27-gauge, 0.75-inch “butterfly” needle inserted into the lateral tail vein. PTZ (10 mg/ml) and bicuculline (0.1 mg/ml) were infused IV at a constant rate of 0.5 ml/min using a 5-ml syringe (BD Biosciences, Franklin Lakes, N.J.) mounted on an infusion pump (Model ‘11’ Plus Syringe Pump; Harvard Apparatus, Holliston, Mass.). The syringe was connected to the needle by polyethylene tubing. The infusion was stopped at 3 min or at the onset of tonic extension, whichever occurred first. The time to occurrence (“infusion duration”) to the following endpoints from the start of the convulsant infusion were determined: (1) the first myoclonic jerk; (2) the onset of generalized clonus; and (3) the onset of tonic extension. Infusion duration values represent the time from the start of the convulsant infusion to the onset of the endpoint. The threshold value (mg/kg) for each endpoint was determined according to the following formula: (infusion duration [s]×infusion rate [ml/min]×convulant concentration [10 mg/ml or 0.1 mg/ml]×1000)/(60 s×body weight of mouse [g])."}, "[2]": {"settings": "even when solubilized with sulfobutyl ether β-cyclodextrin, sodium salt; cited from earlier work"}, "[3]": {"settings": "cited from earlier work"}, "motor function of mice": {"tested_on": "motor function of mice", "test": "horizontal screen test (motor impairment)", "assay_type": "in vivo", "settings": "for motor function in the horizontal screen test, in words: intranasal, doses with comparable antiseizure activity; for animals that fell from the grid: intranasal 1 mg/kg", "procedure": "At various times after intranasal administration, mice were placed on a horizontally oriented grid (consisting of parallel 1.5-mm diameter rods situated 1 cm apart) for 2-3 s and the grid was inverted and held approximately 30-40 cm above a padded surface for a maximum of 60 s. If the animal fell from the grid, the latency from the time of inversion to the time of fall was recorded."}, "righting reflex of mice": {"tested_on": "righting reflex of mice", "test": "loss of righting reflex test", "assay_type": "in vivo", "settings": "for loss of righting reflex (sedation), in words: 10 min to 30 min after administration", "procedure": "Time course of loss of righting reflex following intranasal allopregnanolone (16 mg/kg) and intramuscular allopregnanolone (16 mg/kg). Loss of righting reflex is a nonnoxious behavioral paradigm that indicates loss of consciousness (hypnosis). […] Intranasal delivery of alloprepregnanolone according to the methods described herein avoids the adverse effects on behavior associated with intramuscular bolus administration.\nFor the test, the mouse was placed on its back on a tabletop."}, "[4]": {"settings": "human; cited from earlier work"}, "[5]": {"test": "plasma pharmacokinetics after intranasal or intramuscular dosing", "procedure": "Allopregnanolone (16 mg/mL in 40% Captisol® in 0.9% saline) was administered intranasally at a total dose of 10 mg/kg. 2-3 microliters of solution was administered 3-5 times to each nostril (6-10 times total) over a period of 3.5 min. Allopregnanolone (6 mg/mL in 24% Captisol® in 0.9% saline) was administered intramuscularly at a total dose of 12 mg/kg. Time course of plasma levels of allopregnanolone following intranasal allopregnanolone (10 mg/kg) and intramuscular allopregnanolone (12 mg/kg) was monitored. At various times after administration, trunk blood was collected in chilled heparinized tubes. In some cases, blood was collected by retro-orbital puncture. Plasma was separated and assayed for allopregnanolone as described in Zolkowska D. et al., Epilepsia 2018 October; 59 Suppl 2:220-227.\nAt various times after intranasal administration, trunk blood samples were collected into chilled tubes. Brains were removed, separated into 3 sections (olfactory bulb, forebrain with midbrain, cerebellum with attached pons and medulla) and fast-frozen on dry ice. Blood was centrifuged at 1500 RCF for 10 min to separate the plasma. Brain and plasma samples were stored at −80° C. until processing. Plasma and brain samples were analyzed for allopregnanolone as described in Zolkowska et al (2018). The lower limit of quantification in plasma is 2.5 ng/ml."}, "[6]": {"tested_on": "bicuculline-induced seizures (seizure threshold)", "test": "intravenous bicuculline threshold test", "assay_type": "in vivo, mice", "settings": "intranasal 16 mg/kg; 10 min", "procedure": "as §1"}, "[7]": {"test": "brain region pharmacokinetics after intranasal dosing"}, "[8]": {"settings": "intranasal; cited from earlier work"}, "[9]": {"settings": "intranasal 10 mg/kg, 10 min before PTZ 80 mg/kg IP"}, "[10]": {"settings": "intranasal 16 mg/kg, 10 min after dosing"}, "[11]": {"settings": "mouse, plasma, inhaled or intranasal, 10 mg/kg"}, "[12]": {"settings": "mouse, olfactory bulb, inhaled or intranasal, 10 mg/kg"}}, "note": "“Also recorded” adds a separate entry of the source. Read-outs that look alike come from different tables or passages of the source.", "data": [{"smiles": "CC(=O)[C@H]1CC[C@H]2[C@@H]3CC[C@H]4C[C@H](O)CC[C@]4(C)[C@H]3CC[C@]12C", "note": "[allopregnanolone, 3α-hydroxy-5α-pregnan-20-one]", "values": [{"measurement": "delay in seizure signs", "setting": "PTZ-induced seizures; Example 1, administered 15 min before PTZ, compared with 5 min", "result": "less active"}, {"measurement": "effect on time to onset of seizure signs", "setting": "PTZ-induced seizures; Example 1, intranasal 6 mg/kg", "result": "delayed the time to onset of all seizure signs"}, {"measurement": "protection from tonic hind limb extension and mortality", "setting": "PTZ-induced seizures; Example 1, intranasal 10 mg/kg", "result": "some animals were protected"}, {"measurement": "ratio of latencies, drug to vehicle: clonus", "setting": "PTZ-induced seizures; [9]", "result": 1.5}, {"measurement": "ratio of latencies, drug to vehicle: myoclonic twitch", "setting": "PTZ-induced seizures; [9]", "result": 1.3}, {"measurement": "ratio of latencies, drug to vehicle: tonic extension", "setting": "PTZ-induced seizures; [9]", "result": 4.4}, {"measurement": "animals that failed to exhibit tonic extension", "setting": "PTZ-induced seizures; intranasal 10 mg/kg, of the 14 animals tested", "result": 5}, {"measurement": "effect on seizure threshold parameters", "setting": "[1]; intranasal 16 mg/kg, 10 minutes", "result": "large and statistically significant increase"}, {"measurement": "effect on seizure threshold parameters", "setting": "[1]; intranasal 16 mg/kg, 1 hour", "result": "diminishes"}, {"measurement": "effect on seizure threshold parameters", "setting": "[1]; intranasal 16 mg/kg, 8 hours", "result": "absent; also recorded: no substantial elevation"}, {"measurement": "change in tonic extension threshold versus vehicle", "setting": "[1]; intranasal 16 mg/kg, 10 min", "result": "statistically significant increase"}, {"measurement": "ratio of mean threshold values, drug to vehicle: clonus", "setting": "[1]; [10]", "result": 1.4}, {"measurement": "ratio of mean threshold values, drug to vehicle: myoclonic twitch", "setting": "[1]; [10]", "result": 1.3}, {"measurement": "ratio of mean threshold values, drug to vehicle: tonic extension", "setting": "[1]; [10]", "result": 2.7}, {"measurement": "ratio of mean thresholds, drug to vehicle: tonic extension", "setting": "[1]; intranasal 16 mg/kg, 15 min (maximum elevation)", "result": 5.3}, {"measurement": "ratio of mean thresholds, drug to vehicle: tonic extension", "setting": "[1]; intranasal 16 mg/kg, 60 min", "result": 1.3}, {"measurement": "ratio of mean thresholds, drug to vehicle: tonic extension", "setting": "[1]; intranasal 16 mg/kg, 360 min", "result": 1.1}, {"measurement": "oral bioavailability", "setting": "[2]", "result": "not orally bioavailable"}, {"measurement": "dose adjusted Cmax", "setting": "[3]; intramuscular, prior study", "result": 2150, "unit": "ng/mL"}, {"measurement": "Tmax", "setting": "[3]; intramuscular", "result": 60, "unit": "min"}, {"measurement": "plasma concentration half-time (t1/2)", "setting": "[3]; mice", "result": 16, "unit": "min"}, {"measurement": "animals that did not fall from the grid", "setting": "motor function of mice; intranasal 16 mg/kg", "result": "5 of 8"}, {"measurement": "area under mean holding time versus time curve, compared with untreated (naive) animals", "setting": "motor function of mice; intranasal 16 mg/kg", "result": "not significantly different"}, {"measurement": "motor function in the horizontal screen test, in words", "setting": "motor function of mice", "result": "fails to cause substantial sedation or motor impairment"}, {"measurement": "animals exhibiting loss of righting reflex", "setting": "righting reflex of mice; intramuscular 16 mg/kg", "result": "9 of 10"}, {"measurement": "loss of righting reflex (sedation), in words", "setting": "righting reflex of mice; intramuscular 16 mg/kg", "result": "substantial loss of righting reflex; also recorded: profound sedation"}, {"measurement": "loss of righting reflex (sedation), in words", "setting": "righting reflex of mice; intramuscular 16 mg/kg, listed as Allopregnanolone", "result": "loss of righting reflex in a high proportion of mice"}, {"measurement": "loss of righting reflex (sedation/general anesthesia), in words", "setting": "righting reflex of mice; intranasal 16 mg/kg", "result": "not associated with substantial sedation/general anesthesia; also recorded: only minimal loss of righting reflex"}, {"measurement": "animals exhibiting loss of righting reflex", "setting": "righting reflex of mice; intranasal 16 mg/kg, 60 min observation", "result": "2 of 25"}, {"measurement": "loss of righting reflex (sedation/general anesthesia), in words", "setting": "righting reflex of mice; intranasal 16 mg/kg, listed as Allopregnanolone", "result": "loss of righting reflex in only a small proportion of animal"}, {"measurement": "t1/2", "setting": "[4]", "result": 35, "unit": "min"}, {"measurement": "time therapeutic levels are maintained", "setting": "[5]; intramuscular", "result": "about 2 hours"}, {"measurement": "time by which plasma levels taper off", "setting": "[5]; intramuscular 12 mg/kg", "result": "about 4 hours"}, {"measurement": "time therapeutically meaningful blood levels are maintained", "setting": "[5]; intranasal", "result": "up to 8 hours"}, {"measurement": "time plasma levels are sustained", "setting": "[5]; intranasal 10 mg/kg", "result": "up to 8 hours"}, {"measurement": "true Cmax (time)", "setting": "[5]; intranasal 10 mg/kg, likely value", "result": "< 5", "unit": "min"}, {"measurement": "Cmax", "setting": "[5]; [11]", "result": 3500, "unit": "ng/mL"}, {"measurement": "Tmax", "setting": "[5]; [11]", "result": 1, "unit": "min"}, {"measurement": "half-life", "setting": "[5]; mouse, plasma, inhaled or intranasal, 10 mg/kg, plasma initial phase t1/2, intranasal 10 mg/kg, first 15 min", "result": 4.9, "unit": "min"}, {"measurement": "half-life", "setting": "[5]; mouse, plasma, inhaled or intranasal, 10 mg/kg, plasma t1/2 (overall curve), intranasal 10 mg/kg", "result": 49, "unit": "min"}, {"measurement": "ratio of threshold, drug to vehicle: tonic extension", "setting": "[6]", "result": 1.5}, {"measurement": "olfactory bulb levels compared with plasma levels", "setting": "[7]; intranasal", "result": "substantially higher than the plasma levels"}, {"measurement": "olfactory bulb concentration relative to whole brain", "setting": "[7]; intranasal 16 mg/kg, mean of 1, 2, 5 and 10 min", "result": 10, "unit": "fold"}, {"measurement": "Cmax", "setting": "[7]; mouse, forebrain, cerebellum, inhaled or intranasal, 10 mg/kg", "result": "600 to 700", "unit": "ng/g"}, {"measurement": "Cmax", "setting": "[7]; [12]", "result": 16000, "unit": "ng/g"}, {"measurement": "Tmax", "setting": "[7]; [12]", "result": 1, "unit": "min"}]}, {"smiles": "CN1C(=O)CN=C(c2ccccc2)c2cc(Cl)ccc21", "note": "[diazepam]", "values": [{"measurement": "elevation in thresholds to the three seizure endpoints", "setting": "[1]", "result": "comparable elevations"}, {"measurement": "animals that fell from the grid", "setting": "motor function of mice", "result": "all"}, {"measurement": "motor function in the horizontal screen test, in words", "setting": "motor function of mice", "result": "dramatically impair motor function"}]}, {"smiles": "CC1(C)O[C@@H]2C[C@H]3[C@@H]4C[C@H](F)C5=CC(=O)C=C[C@]5(C)[C@H]4[C@@H](O)C[C@]3(C)[C@]2(C(=O)CO)O1", "note": "[flunisolide]", "values": [{"measurement": "systemic availability", "setting": "[8]", "result": "substantial"}]}, {"smiles": "CCC(=O)O[C@]1(C(=O)SCF)[C@H](C)C[C@H]2[C@@H]3C[C@H](F)C4=CC(=O)C=C[C@]4(C)[C@@]3(F)[C@@H](O)C[C@@]21C", "note": "[fluticasone propionate]", "values": [{"measurement": "systemic availability", "setting": "[8]", "result": "negligible"}]}, {"smiles": "Cc1ncc2n1-c1ccc(Cl)cc1C(c1ccccc1F)=NC2", "note": "[midazolam]", "values": [{"measurement": "elevation in thresholds to the three seizure endpoints", "setting": "[1]", "result": "comparable elevations"}, {"measurement": "animals that fell from the grid", "setting": "motor function of mice", "result": "all"}, {"measurement": "motor function in the horizontal screen test, in words", "setting": "motor function of mice", "result": "dramatically impair motor function"}]}]}
